Measurements as given in paper PMC3389674, “Comparison of Soluble Guanylate Cyclase Stimulators and Activators in Models of Cardiovascular Disease Associated with Oxidative Stress” (Frontiers in Pharmacology, 2012).

Tests used:
Sprague Dawley rats = experiment: radiotelemetry heart rate and blood pressure after single oral dose; format: in vivo, rat
Protocol: To identify equi-efficacious doses of GSK2181236A and BAY 60-4552, heart rate and blood pressure were monitored in male Sprague Dawley (SD) rats (∼500g, n = 4–6 per group) via surgically implanted radiotelemetry transmitters (PhysioTel PA-C40, Data Sciences International, St. Paul, MN, USA). Following oral gavage dosing (0.03–3.0 mg/kg), hemodynamic data were recorded every 5 min for 10 s and then averaged every hour.

SHR-SP = experiment: chronic treatment of SHR-SP on high salt/fat diet: survival, blood pressure, renal and cardiac function; format: in vivo, rat; conditions: for CO (cardiac output) / EDV (end diastolic volume) / EF (ejection fraction) / ESV (end systolic volume) / SV (stroke volume) / LVM/BW (left ventricular mass to body weight ratio): echocardiography after 7 weeks of HSFD; for LVM/BW (left ventricular mass to body weight ratio): HSFD control 3.08 ± 0.06; for survival rate: HSFD control 14%; for urine output: HSFD control 111 ± 21; for MAP: HSFD control 192 ± 10; for effect on MAP compared to the HSFD controls: lower doses: 0.1 mg/kg/day GSK2181236A, 0.3 mg/kg/day BAY 60-4552
Excerpt: The SHR-SP is an established model of genetic hypertension. […] As such, a cohort of HSFD SHR-SP was established as a model of cardiovascular disease associated with chronic oxidative stress in this study.
A subgroup of animals (n = 45) was anesthetized with isoflurane and surgically implanted with radiotelemetry transmitters (PhysioTel PA-C40, Data Sciences International, St. Paul, MN, USA). The transmitter catheter was threaded through the femoral artery into the abdominal aorta. At 11–12 weeks of age, baseline blood pressure and heart rate were measured for 5 days (10 s recordings every 5 min) in normal caging, then rats were acclimated to metabolic caging for a minimum of 48 h before a basal 24 h urine sample and blood were collected. […] The ND group was maintained on normal chow and water throughout the study. […] Rats displaying signs of morbidity which included piloerection, lack of grooming, persistent body weight loss, lethargy, or seizure/convulsions, were promptly euthanized.
Treatments were administered in respective diets starting 1 week after the initiation of HSFD. Urine collections were repeated on weeks 2, 4, 6, and 8 and blood was sampled in the morning after each 24 h collection period for assessment of renal function. Plasma creatinine and urine sodium, microalbumin (MALB), and creatinine were ascertained using an AU640 Chemistry Analyzer (Olympus America, Inc., Center Valley, PA, USA). Plasma compound concentrations were determined as described above.
During week 7, cardiac function and morphometry were evaluated via transthoracic echocardiography. Rats were anesthetized with isoflurane (2–4% induction and 1–3% maintenance). Two-dimensional gray scale images of the left ventricle were obtained in the short axis plane at mid-ventricle level and in the parasternal long axis plane using a GE Vivid 7 system (GE Medical Systems, Milwaukee, WI, USA) and stored as digital cineloops. Pulse wave Doppler recordings from the LV outflow were obtained to determine heart rate. All images were analyzed by a single observer using a GE EchoPac (GE Medical Systems, Milwaukee, WI, USA). LV volumes were calculated as V=5/6(LVA×LVL) where LVA is area of LV chamber from the short axis view and LVL is the LV length from the long axis view at end diastole and end systole. […] Analysis was performed on three to five cardiac cycles.

human sGC = target: T1, human sGC (Homo sapiens, UniProt Q02153); experiment: primary cell-free human sGC enzyme assay (cGMP formation); format: biochemical; conditions: data not shown
T1 sequence (Q02153 1-619): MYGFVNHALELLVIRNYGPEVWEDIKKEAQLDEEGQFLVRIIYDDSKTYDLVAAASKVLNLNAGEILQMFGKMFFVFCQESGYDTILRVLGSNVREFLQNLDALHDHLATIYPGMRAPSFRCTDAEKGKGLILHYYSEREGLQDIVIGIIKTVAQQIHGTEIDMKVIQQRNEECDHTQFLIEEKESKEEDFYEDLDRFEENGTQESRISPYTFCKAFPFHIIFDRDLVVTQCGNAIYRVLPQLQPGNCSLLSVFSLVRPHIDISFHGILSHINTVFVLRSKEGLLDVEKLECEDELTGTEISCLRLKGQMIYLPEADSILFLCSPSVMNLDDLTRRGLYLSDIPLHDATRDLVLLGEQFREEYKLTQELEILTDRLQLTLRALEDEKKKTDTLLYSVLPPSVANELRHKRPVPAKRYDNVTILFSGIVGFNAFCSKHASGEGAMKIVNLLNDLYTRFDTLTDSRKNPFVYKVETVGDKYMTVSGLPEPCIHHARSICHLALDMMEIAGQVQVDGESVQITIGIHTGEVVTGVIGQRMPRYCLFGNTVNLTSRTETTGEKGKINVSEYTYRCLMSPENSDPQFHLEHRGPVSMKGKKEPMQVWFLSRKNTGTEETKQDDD
T1 sequence (Q02108 1-690 partner): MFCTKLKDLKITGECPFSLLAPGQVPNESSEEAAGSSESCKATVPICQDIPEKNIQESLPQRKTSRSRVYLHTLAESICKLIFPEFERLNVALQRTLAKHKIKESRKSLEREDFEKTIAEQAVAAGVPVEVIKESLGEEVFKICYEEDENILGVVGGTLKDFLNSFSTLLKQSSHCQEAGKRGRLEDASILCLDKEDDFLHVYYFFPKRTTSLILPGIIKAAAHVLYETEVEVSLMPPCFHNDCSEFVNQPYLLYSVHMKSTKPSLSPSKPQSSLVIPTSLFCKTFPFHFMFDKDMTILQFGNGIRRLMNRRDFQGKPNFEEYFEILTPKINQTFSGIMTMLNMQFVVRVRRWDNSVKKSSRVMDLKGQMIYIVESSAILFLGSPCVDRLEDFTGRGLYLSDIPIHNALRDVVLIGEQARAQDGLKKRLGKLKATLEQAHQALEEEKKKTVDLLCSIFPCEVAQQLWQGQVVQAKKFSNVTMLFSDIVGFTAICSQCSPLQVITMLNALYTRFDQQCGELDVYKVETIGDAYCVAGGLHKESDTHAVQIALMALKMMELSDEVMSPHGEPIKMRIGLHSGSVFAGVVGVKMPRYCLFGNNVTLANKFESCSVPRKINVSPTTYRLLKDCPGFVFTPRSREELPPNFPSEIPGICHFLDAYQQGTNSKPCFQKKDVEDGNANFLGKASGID

COC(=O)Nc1c(N)nc(-c2nn(Cc3ccccc3F)c3ncccc23)nc1N [BAY 60-4552]
potency on heart rate and blood pressure, less potent than GSK2181236A (Sprague Dawley rats; rat, in vivo): approximately threefold | highest no-effect dose on heart rate and blood pressure (Sprague Dawley rats; single p.o. dose): 0.3 mg/kg | reduction of MAP compared to HSFD controls (SHR-SP; 3 mg/kg/day for 7 weeks, P > 0.05): 17 mmHg | CO (cardiac output) (SHR-SP; HSFD + 0.3 mg/kg/day): 86 ± 6 mL/min | EDV (end diastolic volume) (SHR-SP; HSFD + 0.3 mg/kg/day): 356 ± 21 µL | EF (ejection fraction) (SHR-SP; HSFD + 0.3 mg/kg/day): 69 ± 2% | ESV (end systolic volume) (SHR-SP; HSFD + 0.3 mg/kg/day): 111 ± 11 µL | SV (stroke volume) (SHR-SP; HSFD + 0.3 mg/kg/day): 245 ± 14 µL | LVM/BW (left ventricular mass to body weight ratio) (SHR-SP; HSFD + 0.3 mg/kg/day): 3.06 ± 0.07 mg/g | CO (cardiac output) (SHR-SP; HSFD + 3.0 mg/kg/day): 89 ± 6 mL/min | EDV (end diastolic volume) (SHR-SP; HSFD + 3.0 mg/kg/day): 379 ± 21 µL | EF (ejection fraction) (SHR-SP; HSFD + 3.0 mg/kg/day): 67 ± 1% | ESV (end systolic volume) (SHR-SP; HSFD + 3.0 mg/kg/day): 120 ± 9 µL | SV (stroke volume) (SHR-SP; HSFD + 3.0 mg/kg/day): 259 ± 13 µL | LVM/BW (left ventricular mass to body weight ratio) (SHR-SP; HSFD + 3.0 mg/kg/day): 2.85 ± 0.10 mg/g | survival rate (SHR-SP; HSFD, 0.3 mg/kg/day for 7 week): 46% | urine output (SHR-SP; HSFD, 0.3 mg/kg/day for seven weeks): 79 ± 11 mL/day | survival rate (SHR-SP; HSFD, 3 mg/kg/day for 7 week): 69% | MAP (SHR-SP; HSFD, 3 mg/kg/day for 7 weeks): 175 ± 1 mmHg | urine output (SHR-SP; HSFD, 3.0 mg/kg/day for seven weeks): 56 ± 10 mL/day | sodium excretion (SHR-SP; HSFD, 3.0 mg/kg/day, HSFD control 26.4 ± 2.2): 16 ± 2 mmol/day | MALB excretion (SHR-SP; HSFD, 3.0 mg/kg/day, HSFD control 282.4 ± 20.2): 142 ± 42 mg/day | effect on MAP compared to the HSFD controls (SHR-SP): did not have any effect on MAP

Cc1cc(-c2ccc(OC(F)(F)F)cc2)ccc1COc1ccccc1-c1cccc(-n2ncc(C(=O)O)c2C(F)(F)F)n1 [GSK2181236A, 1-(6-{2-[({3-methyl-4′-[(trifluoromethyl)oxy]-4-biphenylyl}methyl)oxy]phenyl}-2-pyridinyl)-5-(trifluoromethyl)-1H-pyrazole-4-carboxylic acid]
EC50 (human sGC): 25 nM | lowering of mean arterial pressure (MAP) (Sprague Dawley rats; high dose): 5–10 mmHg | potency on heart rate and blood pressure, more potent than BAY 60-4552 (Sprague Dawley rats; rat, in vivo): ~3 fold | doses that increased heart rate and reduced blood pressure (Sprague Dawley rats; single p.o. dose): ≥ 0.3 mg/kg | highest no-effect dose on heart rate and blood pressure (Sprague Dawley rats; single p.o. dose): 0.1 mg/kg | reduction of MAP compared to HSFD controls (SHR-SP; 1.0 mg/kg/day for 7 week, not significant): 9 mmHg | MALB excretion vs HSFD controls (SHR-SP; 0.1 and 1.0 mg/kg/day): did not alter | sodium excretion vs HSFD controls (SHR-SP; 0.1 and 1.0 mg/kg/day): did not alter | urine output vs HSFD controls (SHR-SP; 0.1 and 1.0 mg/kg/day): did not alter | CO (cardiac output) (SHR-SP; HSFD + 0.1 mg/kg/day): 76 ± 7 mL/min | EDV (end diastolic volume) (SHR-SP; HSFD + 0.1 mg/kg/day): 331 ± 29 µL | EF (ejection fraction) (SHR-SP; HSFD + 0.1 mg/kg/day): 67 ± 2% | ESV (end systolic volume) (SHR-SP; HSFD + 0.1 mg/kg/day): 110 ± 11 µL | SV (stroke volume) (SHR-SP; HSFD + 0.1 mg/kg/day): 222 ± 19 µL | LVM/BW (left ventricular mass to body weight ratio) (SHR-SP; HSFD + 0.1 mg/kg/day): 2.69 ± 0.08 mg/g | CO (cardiac output) (SHR-SP; HSFD + 1.0 mg/kg/day): 80 ± 5 mL/min | EDV (end diastolic volume) (SHR-SP; HSFD + 1.0 mg/kg/day): 332 ± 22 µL | EF (ejection fraction) (SHR-SP; HSFD + 1.0 mg/kg/day): 71 ± 1% | ESV (end systolic volume) (SHR-SP; HSFD + 1.0 mg/kg/day): 98 ± 10 µL | SV (stroke volume) (SHR-SP; HSFD + 1.0 mg/kg/day): 234 ± 14 µL | LVM/BW (left ventricular mass to body weight ratio) (SHR-SP; HSFD + 1.0 mg/kg/day): 2.82 ± 0.07 mg/g | survival (SHR-SP; HSFD, 0.1 mg/kg/day for 7 week): did not improve survival | survival rate (SHR-SP; HSFD, 1.0 mg/kg/day for 7 week): 69% | MAP (SHR-SP; HSFD, 1.0 mg/kg/day for 7 week): 183 ± 7 mmHg | effect on MAP compared to the HSFD controls (SHR-SP): did not have any effect on MAP
